Values joined by “and” are separate entries in the source; they are usually repeats but may differ in a detail not shown here. Identical values can stand only once.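 Briefly, cells in 96-well plates were exposed to five compound concentrations for 48 h, and endpoints were estimated by linear interpolation. The concentration for 50% growth inhibition is given as GI50. TGI is the concentration that stops growth completely.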
Assays:
Experiment in all cases: NCI-60 cell line screen, 48 h
PC-3 prostate = test system: PC-3 prostate
NCI-H522 lung = test system: NCI-H522 lung
BT-549 breast = test system: BT-549 breast
HOP-92 NSCLC = test system: HOP-92 NSCLC
HL-60(TB) leukemia = test system: HL-60(TB) leukemia
MALME-3M melanoma = test system: MALME-3M melanoma
CCRF-CEM leukemia = test system: CCRF-CEM leukemia
SK-MEL-28 melanoma = test system: SK-MEL-28 melanoma
K-562 leukemia = test system: K-562 leukemia
SN12C renal = test system: SN12C renal

| Compound | GI50 (PC-3 prostate) | TGI (PC-3 prostate) | GI50 (NCI-H522 lung) | TGI (NCI-H522 lung) | GI50 (BT-549 breast) | TGI (BT-549 breast) | GI50 (HOP-92 NSCLC) | TGI (HOP-92 NSCLC) | GI50 (HL-60(TB) leukemia) | TGI (HL-60(TB) leukemia) | GI50 (MALME-3M melanoma) | TGI (MALME-3M melanoma) | GI50 (CCRF-CEM leukemia) | TGI (CCRF-CEM leukemia) | GI50 (SK-MEL-28 melanoma) | TGI (SK-MEL-28 melanoma) | GI50 (K-562 leukemia) | TGI (K-562 leukemia) | GI50 (SN12C renal) | TGI (SN12C renal) |
| --- | --- | --- | --- | --- | --- | --- | --- | --- | --- | --- | --- | --- | --- | --- | --- | --- | --- | --- | --- | --- |
| N#CCCN1C/C(=C/c2ccc(Br)cc2)C(=O)/C(=C/c2ccc(Br)cc2)C1 | 1.51 µM | 7.54 µM | 1.89 µM | 3.81 µM | 1.56 µM | 3.04 µM | 1.71 µM | 4.89 µM | 2.55 µM | > 100 µM | 2.23 µM | 5.29 µM | 0.341 µM | > 100 µM | 1.77 µM | 3.51 µM | 0.454 µM | > 100 µM | 1.88 µM | 4.6 µM |
| CCc1ccc2c(c1)C(=O)c1c-2n(CCCN=[N+]=[N-])c(=O)c2cc([N+](=O)[O-])ccc12 | > 50 µM | > 50 µM | > 50 µM | > 50 µM | > 50 µM | > 50 µM | > 50 µM | > 50 µM | > 50 µM | > 50 µM | > 50 µM | > 50 µM | > 50 µM | > 50 µM | > 50 µM | > 50 µM | > 50 µM | > 50 µM | > 50 µM | > 50 µM |
| O=C(c1ccco1)c1c(C(F)(F)F)n([O-])c2ccc(C(F)(F)F)cc2[n+]1=O | 0.132 µM | 0.262 µM | 0.462 µM | 1.16 µM | 0.177 µM | 0.339 µM | 0.28 µM | 0.718 µM | 0.0696 µM | 0.31 µM | 0.595 µM | 1.47 µM | 0.207 µM | 0.793 µM | 0.717 µM | 1.91 µM | 0.287 µM | 0.765 µM | 0.255 µM | 0.556 µM |
| CCNC(=O)/C(=C/c1ccc(OC)cc1)c1cc(OC)c(OC)c(OC)c1 | – | > 100 µM | – | 20.8 µM | – | > 100 µM | – | > 96.6 µM | – | 21.9 µM | – | > 100 µM | – | > 100 µM | – | > 100 µM | – | > 100 µM | – | > 100 µM |
| O=C(O)c1cccc(COc2ccc([N+](=O)[O-])cc2Cl)c1 | > 100 µM | > 100 µM | 18.4 µM | 93 µM | 53.4 µM | > 100 µM | 45.2 µM | > 100 µM | 58.5 µM | > 100 µM | – | – | > 100 µM | > 100 µM | > 100 µM | > 100 µM | 37.2 µM | > 100 µM | – | – |
| COc1ccc(-c2nn(-c3cccc(Cl)c3)cc2-c2cc(-c3ccccc3)[nH]c(=O)c2C#N)cc1 | 6.01 µM | 41.6 µM | 3.59 µM | 20.8 µM | 1.46 µM | 17.8 µM | 0.654 µM | 2.14 µM | 21.9 µM | > 50 µM | 13.7 µM | > 50 µM | 8.38 µM | 19.3 µM | 2.93 µM | > 50 µM | 9.22 µM | > 50 µM | 7.94 µM | > 50 µM |
| c1coc(-c2c3ccc(=[N+]4CCCCC4)cc-3oc3cc(N4CCCCC4)ccc23)c1 | 0.0702 µM | 1.06 µM | – | – | 0.191 µM | 0.865 µM | 0.0502 µM | 0.19 µM | 0.0921 µM | 0.468 µM | 0.0423 µM | 0.184 µM | 0.0306 µM | 1.11 µM | 0.114 µM | 0.854 µM | 0.0541 µM | > 100 µM | 0.0591 µM | 0.278 µM |
| CO[C@H]1Nc2c(ccc(C)c2O)C(=O)N2C=C(/C=C/C(N)=O)C[C@@H]12 | – | 0.656 µM | – | 0.182 µM | – | < 0.0479 µM | – | 0.217 µM | – | 0.456 µM | – | 0.0591 µM | – | > 50.6 µM | – | 0.0829 µM | – | 27.8 µM | – | 1.05 µM |
| O=C(/C=C/c1ccccc1)c1ccccc1 | – | > 10 µM | – | > 10 µM | – | > 10 µM | – | > 10 µM | – | > 10 µM | – | > 10 µM | – | > 7.45 µM | – | > 10 µM | – | > 7.51 µM | – | > 10 µM |
| COc1ccc(-c2ccc3c(N4CCOC[C@@H]4C)nc(N4CCOC[C@@H]4C)nc3n2)cc1CO | 0.00478 µM and < 0.0109 µM | > 100 µM | 0.00484 µM | – | 0.00348 µM and 0.0162 µM | – | 0.00134 µM and 0.0105 µM | – | – | > 3.76 µM and 20.7 µM | 0.00289 µM and < 0.01 µM | 0.0203 µM and 0.0392 µM | 0.0102 µM and 0.059 µM | > 100 µM | 0.00476 µM and 0.0135 µM | 0.181 µM | 0.012 µM and 0.0551 µM | > 100 µM | 0.0053 µM and 0.0208 µM | > 100 µM |
| O=C(NCc1ccc(Cn2c(=O)sn(-c3ccccc3)c2=O)cc1)OCc1ccc2cccc(O)c2n1 | 0.826 µM | 2.42 µM | 0.407 µM | 1.69 µM | 0.732 µM | 2.3 µM | 0.459 µM | 1.97 µM | 1.24 µM | > 20.5 µM | 1.48 µM | 2.86 µM | 0.359 µM | > 100 µM | 1.34 µM | 2.64 µM | 0.403 µM | > 100 µM | 0.907 µM | 2.24 µM |
| COc1ccc(-c2nc(-c3cc(OC)cc(OC)c3)[nH]c2-c2ccc(OC)cc2)cc1 | 4 µM | > 100 µM | 3.42 µM | 59.3 µM | 8.56 µM | > 100 µM | – | – | 3.74 µM | > 100 µM | 8.31 µM | > 100 µM | 3.93 µM | > 100 µM | > 100 µM | > 100 µM | 5.02 µM | > 100 µM | > 100 µM | > 100 µM |
| COc1ccc(C(=O)c2cc(OC)c(OC)c(OC)c2)cc1OC | – | > 100 µM | – | 12.3 µM | – | > 100 µM | – | – | – | 11.7 µM | – | > 100 µM | – | > 100 µM | – | > 100 µM | – | > 100 µM | – | > 100 µM |
| COC(c1ccc(C(C)(C)C)cc1)(c1ccc(C(C)(C)C)cc1)c1ccc(C(C)(C)C)cc1 | – | > 100 µM | – | > 100 µM | – | > 100 µM | – | – | – | > 100 µM | – | > 100 µM | – | > 100 µM | – | > 100 µM | – | > 100 µM | – | > 100 µM |
| CC(C)CC(C/C=C1/CC(CO)(COC(=O)C(C)(C)C)OC1=O)CC(C)C (stereo not drawn) | – | 21.2 µM and 21.6 µM | – | 30 µM and 27 µM | – | 24.6 µM and 31 µM | – | 18.8 µM | 0.154 µM and 0.46 µM | 16.9 µM and 16.7 µM | – | – | – | 18.4 µM | 28.7 µM | 44.7 µM and 20.8 µM | – | 27.4 µM and > 37.5 µM | – | 22.2 µM |
| COC(=O)c1cc2c(o1)-c1nccc3c1c(nc1ccccc13)C2=O | 3.41 µM | 29.6 µM | – | – | 4.05 µM | 18.2 µM | 1.96 µM | 17.7 µM | 2 µM | 4.76 µM | 1.89 µM | 5.96 µM | 3.79 µM | 15.5 µM | 11.5 µM | 25.4 µM | – | – | 4.04 µM | 18.1 µM |
